This note sets out measurements from ChEMBL document CHEMBL1287766, “Discovery of N-benzyl-N'-(4-pipyridinyl)urea CCR5 antagonists as anti-HIV-1 agents (II): modification of the acyl portion” (Bioorg Med Chem Lett, 2010).

SMILES strings stand for the structures.

Series [1] can be described thus: Oral bioavailability in Sprague-Dawley rat at 1 mg/kg. The class given is ADME, organism-based. The following applies: in vivo.
The nature of series [2]: Clearance in Sprague-Dawley rat at 1 mg/kg. Also on record: dose 1 mg/kg. The class given is ADME, organism-based. The following applies: in vivo.
Series [3] deals with Human immunodeficiency virus 1. The series can be described thus: Antiviral activity against HIV1 BaL in human HOS cells. Type of series: functional, organism-based. As to conditions: Human immunodeficiency virus 1, BaL.
A short description of series [4]: Half life in Sprague-Dawley rat at 1 mg/kg. The class given is ADME, organism-based. Also on record: dose 1 mg/kg. As to conditions: in vivo.
Another series relates to HOS. Briefly: Cytotoxicity against human HOS cells up to 1 uM. Type of series: cell-based.
The subject of the next series is PBL. Briefly: Cytotoxicity against human PBL cells up to 1 uM. The class given is cell-based.
Series [5] has as its system Human immunodeficiency virus 1. Briefly: Antiviral activity against HIV1 BaL in human PBL cells. The class given is functional, organism-based. The following applies: Human immunodeficiency virus 1, BaL.
The target of a further series is Cytochrome P450 3A4 (Homo sapiens, UniProt P08684). The series can be described thus: Inhibition of CYP3A4. Type of series: ADME.
Series [6] is described as follows: Apparent permeability across MDCK cells at pH 7.05. The following applies: dog. Type of series: ADME, cell-based, Canis lupus familiaris.

Sequence of Cytochrome P450 3A4 (P08684 whole entry): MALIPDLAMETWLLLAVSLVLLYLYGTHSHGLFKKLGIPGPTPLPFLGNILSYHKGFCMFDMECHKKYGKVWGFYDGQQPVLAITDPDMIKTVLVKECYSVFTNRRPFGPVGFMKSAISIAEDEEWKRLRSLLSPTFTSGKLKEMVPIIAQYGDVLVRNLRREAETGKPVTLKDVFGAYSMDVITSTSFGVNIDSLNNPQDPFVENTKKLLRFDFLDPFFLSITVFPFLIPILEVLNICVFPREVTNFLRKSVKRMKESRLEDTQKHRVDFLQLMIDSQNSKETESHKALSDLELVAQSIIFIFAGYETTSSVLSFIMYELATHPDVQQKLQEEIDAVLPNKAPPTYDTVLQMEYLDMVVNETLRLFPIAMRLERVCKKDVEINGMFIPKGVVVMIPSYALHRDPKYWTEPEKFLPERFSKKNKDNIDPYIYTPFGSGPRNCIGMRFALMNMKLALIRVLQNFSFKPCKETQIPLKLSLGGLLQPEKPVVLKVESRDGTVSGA

`CC(CO)(CO)C(=O)N1CCC(CCN2CCC(N(C(=O)NCc3ccc(C#N)cc3)c3cccc(F)c3)CC2)(c2cccc(F)c2)CC1` showed a bioavailability in [1] of 7%. The clearance in [2] came out at 26 mL/min/kg. Further, the IC50 in [3] is 22 nM. In series [4], this compound gave a half-life of 264 min. Besides, the Activity result in the series with HOS and in the series with PBL was “Non-toxic” throughout.

In series [1], `CC(C)(C)NS(=O)(=O)c1ccc(Cl)c(C(=O)N2CCC(CCN3CCC(N(C(=O)NCc4ccc(C#N)cc4)c4cccc(F)c4)CC3)(c3cccc(F)c3)CC2)c1Cl` returned a bioavailability of 10%. Moreover, the clearance in series [2] turned out to be 9 mL/min/kg. Besides, the IC50 is 0.8 nM in series [5] and 3 nM in series [3]. Besides, the Activity entry in the series with HOS and with PBL was “Non-toxic” in each case.

In the case of `N#Cc1ccc(CNC(=O)N(c2cccc(F)c2)C2CCN(CCC3(c4cccc(F)c4)CCN(C(=O)c4c(Cl)cncc4Cl)CC3)CC2)cc1`, the bioavailability in [1] stood at 50%. In series [2], this compound registered a clearance of 24 mL/min/kg. The IC50 is 4.8 nM in series [5] and 2.7 nM in series [3]. In series [4], this compound gave a half-life of 294 min. The “inhibition (INH)” value against Cytochrome P450 3A4 is given as “Active”. In addition, the Activity entry with HOS and in the series on PBL was “Non-toxic” in each case.

The compound `N#Cc1ccc(CNC(=O)N(c2cccc(F)c2)C2CCN(CCC3(c4cccc(F)c4)CCN(C(=O)c4nsnc4O)CC3)CC2)cc1` showed a bioavailability in [1] of 0%. This compound also displayed a clearance in series [2] of 124 mL/min/kg. Further, the IC50 in series [5] is 41 nM; in [3] it was 1.1 nM. Further, on Cytochrome P450 3A4, the “inhibition (INH)” value is reported as “Active”. Moreover, the Activity entry in the series with HOS and with PBL was “Non-toxic” in each case.

As for `CC(C)(CO)C(=O)N1CCC(CCN2CCC(N(C(=O)NCc3ccc(C#N)cc3)c3cccc(F)c3)CC2)(c2cccc(F)c2)CC1`, the bioavailability in series [1] worked out at 63%. For the same compound, in series [2], the clearance came to 22 mL/min/kg. Further, the IC50 in series [5] was determined as 20 nM; in [3], 19 nM. The same compound gave a half-life in series [4] of 156 min. For the same compound, the Activity result in the series on HOS and in the series with PBL was “Non-toxic” in each case.

`N#Cc1ccc(CNC(=O)N(c2cccc(F)c2)C2CCN(CCC3(c4cccc(F)c4)CCN(C(=O)c4cc(S(=O)(=O)N5CC[C@H](O)C5)c(F)cc4Cl)CC3)CC2)cc1` returned a bioavailability in series [1] of 8%. Besides, in [2], the clearance worked out at 24 mL/min/kg. Besides, the results for the IC50 in series [5] and in series [3] were 0.5 nM and 1.5 nM, respectively. The Activity result in the series with HOS and with PBL was “Non-toxic” in each case.

Turning to `N#Cc1ccc(CNC(=O)N(c2cccc(F)c2)C2CCN(CCC3(c4cccc(F)c4)CCN(C(=O)c4cn[nH]c4C(F)(F)F)CC3)CC2)cc1`, the bioavailability in series [1] came out at 3%. In addition, the clearance in series [2] is 13 mL/min/kg. In [3], the IC50 was 8.2 nM. The compound also gave a half-life in series [4] of 432 min. For the same compound, the “inhibition (INH)” value on Cytochrome P450 3A4 was “Active”. Also, the Activity entry with HOS and in the series with PBL was “Non-toxic” in each case.

As for `N#Cc1ccc(CNC(=O)N(c2cccc(F)c2)C2CCN(CCC3(c4cccc(F)c4)CCN(C(=O)c4c(F)ccc(S(N)(=O)=O)c4F)CC3)CC2)cc1`, the clearance in series [2] was found to be 25 mL/min/kg. Also, the IC50 in [5] was determined as 2 nM; in series [3], 6.6 nM. The Activity entry in the series with HOS and in the series with PBL was “Non-toxic” in each case.

`N#Cc1ccc(CNC(=O)N(c2cccc(F)c2)C2CCN(CCC3(c4cccc(F)c4)CCN(C(=O)c4cccnc4F)CC3)CC2)cc1` gave a bioavailability in series [1] of 60%. Further, in series [2], the clearance stood at 22.5 mL/min/kg. Besides, the figures for the IC50 in series [5] and in [3] were 6.1 nM and 6.4 nM, respectively. Moreover, in series [4], the half-life is 204 min. Also, the “inhibition (INH)” value against Cytochrome P450 3A4 is “Active”. Further, the Activity result with HOS and in the series on PBL was “Non-toxic” in each case.

`N#Cc1ccc(CNC(=O)N(c2cccc(F)c2)C2CCN(CCC3(c4cccc(F)c4)CCN(C(=O)c4cc(S(=O)(=O)N5CCCC5)c(F)cc4F)CC3)CC2)cc1` came in with a bioavailability in [1] of 10%. This compound had a clearance in [2] of 29 mL/min/kg. The values for the IC50 in series [5] and in series [3] were 0.6 nM and 0.9 nM, respectively. Further, the Activity result in the series on HOS and in the series on PBL was “Non-toxic” each time.

As for `N#Cc1ccc(CNC(=O)N(c2cccc(F)c2)C2CCN(CCC3(c4cccc(F)c4)CCN(C(=O)c4cc(S(N)(=O)=O)c(F)cc4F)CC3)CC2)cc1`, the Papp in [6] is < 0.3 ×10⁻⁶ cm/s. In series [2], this compound yielded a clearance of 31 mL/min/kg. In addition, the results for the IC50 in [5] and in series [3] were 5.2 nM and 4 nM, respectively. Further, the Activity entry with HOS and with PBL was “Non-toxic” in each case.

In the case of `N#Cc1ccc(CNC(=O)N(c2cccc(F)c2)C2CCN(CCC3(c4cccc(F)c4)CCN(C(=O)c4cc(S(=O)(=O)N5CC[C@H](O)C5)c(F)cc4F)CC3)CC2)cc1`, in [1], the bioavailability came to 0%. In [2], this compound yielded a clearance of 43 mL/min/kg. In series [3], this compound came in with a 50% inhibitory concentration (IC50) of 1.3 nM. Also, the Activity result in the series with HOS and in the series on PBL was “Non-toxic” throughout.

`CC(C)(C#N)C(=O)N1CCC(CCN2CCC(N(C(=O)NCc3ccc(C#N)cc3)c3cccc(F)c3)CC2)(c2cccc(F)c2)CC1`: in [1], the bioavailability worked out at 28%. In addition, in series [2], the clearance amounted to 12 mL/min/kg. For the same compound, the IC50 in series [5] came out at 49 nM; in series [3], 6.4 nM. In addition, in [4], the half-life is 258 min. Besides, the Activity entry in the series on HOS and with PBL was “Non-toxic” in each case.

`Cn1cc(Cl)c(C(=O)N2CCC(CCN3CCC(N(C(=O)NCc4ccc(C#N)cc4)c4cccc(F)c4)CC3)(c3cccc(F)c3)CC2)n1`: in series [1], the bioavailability worked out at 11%. This compound also registered a clearance in series [2] of 25 mL/min/kg. In addition, the results for the IC50 in series [5] and in [3] were 22 nM and 17 nM, respectively. In series [4], this compound gave a half-life of 156 min. Further, the “inhibition (INH)” value on Cytochrome P450 3A4 is “Active”. In addition, the Activity result with HOS and in the series with PBL was “Non-toxic” in each case.

Take `CC(C)(C)C(=O)N1CCC(CCN2CCC(N(C(=O)NCc3ccc(C#N)cc3)c3cccc(F)c3)CC2)(c2cccc(F)c2)CC1`: the bioavailability in series [1] is 11%. The clearance in [2] turned out to be 10 mL/min/kg. Moreover, the IC50 in series [5] was 5.3 nM; in series [3], 11 nM. Further, in series [4], the half-life is 144 min. In addition, the Activity entry in the series with HOS and in the series with PBL was “Non-toxic” throughout.

`N#Cc1ccc(CNC(=O)N(c2cccc(F)c2)C2CCN(CCC3(c4cccc(F)c4)CCN(C(=O)c4cc(S(=O)(=O)N5CCCC5)c(F)cc4Cl)CC3)CC2)cc1` yielded a bioavailability in [1] of 9%. The compound further yielded a clearance in series [2] of 9.5 mL/min/kg. The IC50 was determined as 0.6 nM in series [5] and 1.5 nM in series [3]. In addition, the Activity entry in the series on HOS and with PBL was “Non-toxic” in each case.

Regarding `N#Cc1ccc(CNC(=O)N(c2cccc(F)c2)C2CCN(CCC3(c4cccc(F)c4)CCN(C(=O)c4c(Cl)ccc(S(N)(=O)=O)c4Cl)CC3)CC2)cc1`, in series [6], the Papp was < 0.3 ×10⁻⁶ cm/s. The compound also returned a clearance in series [2] of 16 mL/min/kg. Further, the IC50 is 2.8 nM in [5] and 5.7 nM in series [3]. In addition, the Activity entry in the series with HOS and in the series on PBL was “Non-toxic” each time.

With `N#Cc1ccc(CNC(=O)N(c2cccc(F)c2)C2CCN(CCC3(c4cccc(F)c4)CCN(C(=O)C4CCOCC4)CC3)CC2)cc1`, the bioavailability in series [1] amounted to 11%. In [2], this compound had a clearance of 25 mL/min/kg. The IC50 in series [5] amounted to 22 nM; in series [3] it was 17 nM. In addition, the half-life in series [4] was 156 min. The Activity entry in the series on HOS and in the series with PBL was “Non-toxic” throughout.

Regarding `N#Cc1ccc(CNC(=O)N(c2cccc(F)c2)C2CCN(CCC3(c4cccc(F)c4)CCN(C(=O)c4ccnc(Cl)c4)CC3)CC2)cc1`, in [1], the bioavailability amounted to 64%. Further, the clearance in series [2] is 14.6 mL/min/kg. The IC50 in series [5] came out at 13 nM; in series [3], 19 nM. In addition, in series [4], the half-life is 348 min. Besides, at Cytochrome P450 3A4, the “inhibition (INH)” value is on record as “Active”. Further, the Activity entry in the series with HOS and with PBL was “Non-toxic” each time.

Turning to `N#Cc1ccc(CNC(=O)N(c2cccc(F)c2)C2CCN(CCC3(c4cccc(F)c4)CCN(C(=O)c4cc(S(N)(=O)=O)c(F)cc4Cl)CC3)CC2)cc1`, in series [6], the Papp was < 0.3 ×10⁻⁶ cm/s. The compound also came in with a clearance in series [2] of 9.7 mL/min/kg. Moreover, the 50% inhibitory concentration (IC50) in series [5] is 0.9 nM; in [3] it was 6.8 nM. The Activity entry with HOS and in the series with PBL was “Non-toxic” each time.

For orientation: bioavailability means dose-corrected exposure relative to a reference, in per cent. A low value points to poor availability. The clearance is a measure of how efficiently the substance is removed, as volume per time. High values mean a high capacity for elimination, low ones a low capacity for elimination. A word on the IC50: it is the concentration at which inhibition is half-maximal. A low value points to inhibition by little substance. One may read the half-life as the time needed for the level to fall by half in the phase considered. Lower therefore signals rapid decline. One may read the Papp as a coefficient for how fast a substance crosses the barrier.
